Results on one compound are retold here after paper PMC11317636, “Convergent evolution in toxin detection and resistance provides evidence for conserved bacterial–fungal interactions” (Proceedings of the National Academy of Sciences of the …, 2024).

One experiment deals with T1, DnoP (PA4170) (Pseudomonas aeruginosa, UniProt A0A0H2ZG54).
T1 construct: gene PA14_09950; one replicate with C-terminal mCherry fusion purified from A. fumigatus
In words: DTNB assay of residual free thiols at […] nm. The format is biochemical. The settings on record: 40 µM TCEP-reduced substrate, 0.2 µM enzyme, 20 mM Tris-HCl pH 7.0, 100 mM NaCl, room temperature, 15 min.

Another experiment deals with T2, GliT (Aspergillus fumigatus, UniProt E9RAH5).
T2 construct: one replicate with C-terminal mCherry fusion purified from A. fumigatus (A1160 background)
T2 sequence (E9RAH5 whole entry, the tested form may be a part): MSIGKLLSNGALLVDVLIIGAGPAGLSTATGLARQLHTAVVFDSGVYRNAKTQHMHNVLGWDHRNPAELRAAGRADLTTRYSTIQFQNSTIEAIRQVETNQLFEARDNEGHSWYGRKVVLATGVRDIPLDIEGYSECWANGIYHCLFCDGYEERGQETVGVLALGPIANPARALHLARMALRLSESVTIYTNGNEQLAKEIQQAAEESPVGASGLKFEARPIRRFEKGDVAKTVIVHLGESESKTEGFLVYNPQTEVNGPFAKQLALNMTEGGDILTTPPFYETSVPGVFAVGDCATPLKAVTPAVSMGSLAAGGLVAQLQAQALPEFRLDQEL
The format is biochemical. The settings on record: 40 µM TCEP-reduced substrate, 0.2 µM enzyme, 20 mM Tris-HCl pH 7.0, 100 mM NaCl, room temperature, 15 min.

Structures are written as SMILES.

T1 sequence (A0A0H2ZG54 entry or part of it): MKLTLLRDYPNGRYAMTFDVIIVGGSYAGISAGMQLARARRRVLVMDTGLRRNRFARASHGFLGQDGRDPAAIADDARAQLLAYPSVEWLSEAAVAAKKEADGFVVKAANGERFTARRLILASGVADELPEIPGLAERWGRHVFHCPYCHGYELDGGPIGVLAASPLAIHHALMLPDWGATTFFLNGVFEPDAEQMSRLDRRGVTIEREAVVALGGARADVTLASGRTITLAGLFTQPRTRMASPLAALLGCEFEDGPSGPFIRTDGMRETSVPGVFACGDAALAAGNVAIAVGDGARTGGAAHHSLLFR

On to `CN1C(=O)C2(S)CC3=CC=CC(O)C3N2C(=O)C1(S)CO` (centres unmarked) [compound 1, reduced gliotoxin], for which the “DTNB assay of residual free thiols at 412 nm” value was “Recombinant PA4170 and GliT catalyzed disulfide oxidation of both gliotoxin and holomycin” at DnoP (PA4170); “Recombinant PA4170 and GliT catalyzed disulfide oxidation of both gliotoxin and holomycin” at GliT.
